Data as given in ChEMBL document CHEMBL1147935, “Synthesis and antihypertensive activity of novel 3-benzyl-2-substituted-3H-[1,2,4]triazolo[5,1-b]quinazolin-9-ones” (2007).

How the values were obtained:
Format in all cases: functional
Set-up in all cases: scale not given: the % may be the effect or the level left
Rattus norvegicus [1] = assay: Antihypertensive activity in spontaneously hypertensive rat assessed as decrease in blood pressure at 5 mg/kg, po after 4 hrs by tail cuff method
Rattus norvegicus [2] = assay: Antihypertensive activity in spontaneously hypertensive rat assessed as decrease in blood pressure at 5 mg/kg, po after 1 hr by tail cuff method
Rattus norvegicus [3] = assay: Antihypertensive activity in spontaneously hypertensive rat assessed as decrease in blood pressure at 5 mg/kg, po after 3 hrs by tail cuff method
Rattus norvegicus [4] = assay: Antihypertensive activity in spontaneously hypertensive rat assessed as decrease in blood pressure at 5 mg/kg, po after 5 hrs by tail cuff method
Rattus norvegicus [5] = assay: Antihypertensive activity in spontaneously hypertensive rat assessed as decrease in blood pressure at 5 mg/kg, po after 2 hrs by tail cuff method

SMILES: Cc1nn2c(=O)c3ccccc3nc2n1Cc1ccccc1
- Activity (Rattus norvegicus [1]): 38.8%
- Activity (Rattus norvegicus [2]): 15.3%
- Activity (Rattus norvegicus [3]): 33.5%
- Activity (Rattus norvegicus [4]): 15.3%
- Activity (Rattus norvegicus [5]): 31.5%

SMILES: O=c1c2ccccc2nc2n(Cc3ccccc3)c(CCl)nn12
- Activity (Rattus norvegicus [1]): 17.2%
- Activity (Rattus norvegicus [2]): 3.7%
- Activity (Rattus norvegicus [3]): 15%
- Activity (Rattus norvegicus [4]): 6.7%
- Activity (Rattus norvegicus [5]): 11.9%

SMILES: O=c1c2ccccc2nc2n(Cc3ccccc3)c(CN3CCOCC3)nn12
- Activity (Rattus norvegicus [1]): 25.6%
- Activity (Rattus norvegicus [2]): 8.6%
- Activity (Rattus norvegicus [3]): 21.7%
- Activity (Rattus norvegicus [4]): 19.4%
- Activity (Rattus norvegicus [5]): 10%

SMILES: O=c1c2ccccc2nc2n(Cc3ccccc3)c(-c3ccccc3)nn12
- Activity (Rattus norvegicus [1]): 13.1%
- Activity (Rattus norvegicus [2]): 6.1%
- Activity (Rattus norvegicus [3]): 10.1%
- Activity (Rattus norvegicus [4]): 14.1%
- Activity (Rattus norvegicus [5]): 7.1%

SMILES: Cc1ccc(-c2nn3c(=O)c4ccccc4nc3n2Cc2ccccc2)cc1
- Activity (Rattus norvegicus [1]): 11.6%
- Activity (Rattus norvegicus [2]): 4.7%
- Activity (Rattus norvegicus [3]): 9.1%
- Activity (Rattus norvegicus [4]): 16.2%
- Activity (Rattus norvegicus [5]): 5.6%

SMILES: CCOc1ccc(-c2nn3c(=O)c4ccccc4nc3n2Cc2ccccc2)cc1
- Activity (Rattus norvegicus [1]): 13.6%
- Activity (Rattus norvegicus [2]): 6.5%
- Activity (Rattus norvegicus [3]): 9.52%
- Activity (Rattus norvegicus [4]): 16.5%
- Activity (Rattus norvegicus [5]): 7.6%

SMILES: O=c1c2ccccc2nc2n(Cc3ccccc3)cnn12
- Activity (Rattus norvegicus [1]): 20.8%
- Activity (Rattus norvegicus [2]): 5.4%
- Activity (Rattus norvegicus [3]): 17.3%
- Activity (Rattus norvegicus [4]): 19.8%
- Activity (Rattus norvegicus [5]): 7.3%

SMILES: CCCc1nn2c(=O)c3ccccc3nc2n1Cc1ccccc1
- Activity (Rattus norvegicus [1]): 17%
- Activity (Rattus norvegicus [2]): 13.4%
- Activity (Rattus norvegicus [3]): 19%
- Activity (Rattus norvegicus [4]): 15.7%
- Activity (Rattus norvegicus [5]): 20.5%

SMILES: COc1ccc(-c2nn3c(=O)c4ccccc4nc3n2Cc2ccccc2)cc1
- Activity (Rattus norvegicus [1]): 12.6%
- Activity (Rattus norvegicus [2]): 5.9%
- Activity (Rattus norvegicus [3]): 9.6%
- Activity (Rattus norvegicus [4]): 15.4%
- Activity (Rattus norvegicus [5]): 9.7%

SMILES: O=c1c2ccccc2nc2n(Cc3ccccc3)c(CN3CCCCC3)nn12
- Activity (Rattus norvegicus [1]): 16.1%
- Activity (Rattus norvegicus [2]): 3.6%
- Activity (Rattus norvegicus [3]): 9.1%
- Activity (Rattus norvegicus [4]): 13.1%
- Activity (Rattus norvegicus [5]): 5.1%

SMILES: COc1cc2nc(N3CCN(C(=O)c4ccco4)CC3)nc(N)c2cc1OC [PRAZOSIN]
- Activity (Rattus norvegicus [1]): 19.6%
- Activity (Rattus norvegicus [2]): 30.2%
- Activity (Rattus norvegicus [3]): 18%
- Activity (Rattus norvegicus [4]): 12.9%
- Activity (Rattus norvegicus [5]): 24.6%
